Where “and” joins values, the source holds several entries; their conditions need not be identical. Equal values may be shown once. Entries after “also recorded” stand apart in the source; their conditions may differ. Read-outs that look alike come from different tables or passages of the source.
Experiments:
Bet v 1d = target: T1, Bet v 1d (Betula pendula, UniProt P43177); assay: 1H-15N HSQC NMR titration (chemical shift perturbation) of 15N-Bet v 1d; assay type: binding, Betula verrucosa; settings: for binding to Bet v 1d (in words): 1H-15N HSQC titration, up to 15-fold excess; for Dissociation constant Kd (averaged Kd app): NMR, Bet v 1d, average of all analysable residues with CSPs > 0.08 ppm, ± standard deviation
T1 construct: made in house
T1 sequence (P43177 whole entry): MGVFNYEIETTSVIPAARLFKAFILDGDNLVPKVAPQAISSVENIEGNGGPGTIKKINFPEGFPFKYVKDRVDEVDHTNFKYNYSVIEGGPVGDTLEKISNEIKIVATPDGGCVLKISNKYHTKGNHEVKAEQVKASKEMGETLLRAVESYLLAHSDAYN
Experimental: (§1) All NMR experiments were performed at 298 K in 50 mM sodium phosphate buffer, 50 mM NaCl, pH 7.0, 10% deuterium oxide (^2H2O) with ^15N-uniformly labelled Bet v 1 isoforms using Bruker Avance 700 MHz and Avance 800 MHz spectrometers with cryogenically cooled triple-resonance probes equipped with pulsed field-gradient capabilities. NMR data were processed using NMRPipe and visualized with NMRViewJ [89]. Three-dimensional ^15N-edited NOESY (nuclear Overhauser enhancement spectroscopy, mixing times 120 ms) experiments to assign chemical shifts were obtained with 500 μM ^15N-labeled samples of Bet v 1 isoform d or m and yielded 91% of assigned residues for Bet v 1d and 89% for Bet v 1m. The sequence-specific assignments of the amide resonances of Bet v 1a are reported elsewhere.
(§2) Interaction of Q3OS with the Bet v 1 isoforms was measured by incubating 700 μM Q3OS with 50 μM of each ^15N-labeled Bet v 1 isoform in 50 mM sodium phosphate, 50 mM NaCl buffer, pH 7.0.
(§3) For titration experiments all other flavonoids were dissolved in deuterated DMSO, while glucose and galactose were dissolved in 50 mM sodium phosphate buffer, 50 mM NaCl, pH 7.0, 10% deuterium oxide and titrated stepwise to a final excess of up to 17-fold to protein samples (ca. 100 μM). […] CSPs for ligand binding were calculated based on Eq (2): […] (2) ΔδHN and ΔδN, chemical shift differences of amide proton and nitrogen resonances, respectively, in ppm.
(§4) K d values for flavonoid binding were determined with NMRViewJ [89]. All analysable amino acid residues that were unaffected by DMSO addition and showing CSPs > 0.08 ppm were fitted to a quadratic binding curve with default settings, and an average K d app was calculated (Table 1 and S1–S3 Tables). The CSPs of all residues showing CSPs > 0.04 ppm were mapped either on models of Bet v 1d and Bet v 1m or on the Bet v 1a structure (pdb code 1BV1, [29]).

Bet v 1a [1] = target: T2, Bet v 1a (Betula pendula, UniProt P15494); assay: 1H-15N HSQC NMR titration (chemical shift perturbation) of 15N-Bet v 1a; assay type: binding, Betula verrucosa; settings: for Kd per residue / Kd: Bet v 1a
T2 construct: made in house
T2 sequence (P15494 whole entry): as the sequence (P43177 whole entry) above, with I8T, V31F, N58S, V92I, C113S, V114I, N126D counted along it
Experimental: as §1, §2, §3, §4

[2] = UV/VIS absorption spectra of unbound flavonoids; assay type: physicochemical; settings: pH 7.0
Experimental: All flavonoids and Bet v 1 isoforms were dissolved in 50 mM sodium phosphate, 50 mM NaCl, 10% (v/v) DMSO, pH 7.0, to a final concentration of 10 to 20 μM in 500 μl. Absorption spectra from 200–800 nm were recorded at 25°C in a 1 cm quartz cuvette (Hellma GmbH) using a 8453 UV-visible spectrophotometer (Agilent).

Bet v 1m [3] = target: T3, Bet v 1m (Betula pendula, UniProt P43186); assay: 1H-15N HSQC NMR titration (chemical shift perturbation) of 15N-Bet v 1m; assay type: binding, Betula verrucosa
T3 construct: made in house
T3 sequence (P43186 whole entry): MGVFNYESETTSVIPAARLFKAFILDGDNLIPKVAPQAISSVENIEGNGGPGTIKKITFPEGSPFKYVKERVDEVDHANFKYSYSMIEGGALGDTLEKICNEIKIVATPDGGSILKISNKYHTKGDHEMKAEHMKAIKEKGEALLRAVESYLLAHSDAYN
Experimental: as §1, §2, §3, §4

[4] = tested on: serum IgE binding to surface-coated Bet v 1a, Bet v 1d and Bet v 1m; assay: Indirect ELISA for IgE binding to Bet v 1 isoforms; set-up: species or system human; settings: for influence of ligand on IgE binding of Bet v 1 isoforms: 5-fold molar excess of ligand, isoforms a, d, m
Excerpt: (§5) Fifteen sera of birch pollen-allergic subjects were collected, tested, and pooled according to the guideline of the European Medicines Agency (EMEA/CHMP/BWP/304831/2007). The serum pool is routinely used for batch-release testing of birch pollen-derived allergenic products at the Paul-Ehrlich-Institut. The same serum pool was used for both, ELISA and mediator release assays.
For IgE-ELISA experiments, Maxisorp plates (Nunc via Fisher Scientific) were coated overnight at room temperature with 50 ng/100 μl recombinant Bet v 1 isoforms a, d, or m with a 5-fold molar excess of quercetin-3-O-sophorose, rutin, quercetin, quercetin-3-O-glucoside, quercetin-3-O-galactoside, or sophorose, respectively, in phosphate-buffered saline (PBS). After blocking with PBS containing 2% bovine serum albumin (BSA) these plates and an uncoated control were incubated with a dilution series of a serum pool of birch-pollen allergic subjects for 1 h at room temperature with PBS containing 0.05% Tween 20 and 0.1% BSA. Allergen-specific human IgE was detected with a horseradish peroxidase-conjugated mouse anti-human IgE antibody (Clone B3102E8, Southern biotech via Biozol, Eching, Germany) diluted 1:1000. 3,3′,5,5′-tetramethylbenzidine (Roth, Karlsruhe) was used as substrate for horseradish peroxidase, and the absorbance at 450 nm was measured after stopping the reaction with 25% H2SO4.

Bet v 1m [5] = target: T3, Bet v 1m; assay: 1H-15N HSQC NMR titration (chemical shift perturbation) of 15N-Bet v 1m; assay type: binding, Betula verrucosa; settings: 1H-15N HSQC titration, up to 15-fold excess
[6] = tested on: humanized rat basophil leukemia (RBL) cells; assay: β-Hexosaminidase release (mediator release) assay; assay type: cell-based
Experimental: as §5
The mediator release assay was performed according to an established protocol. […] After washing, cells were stimulated with serial dilutions of Bet v 1 isoforms a, d, or m in Tyrode's buffer containing […]. For complex formation, the Bet v 1 isoforms were incubated overnight with a 5-fold molar excess of Q3OS, rutin, quercetin, Q3OGlc, Q3OGal, or sophorose, respectively, before stimulating the cells. Degranulation was quantified by photometric measurement of β-hexosaminidase activity in the culture supernatants. The percentage of β-hexosaminidase activity relative to cells lysed with Triton X-100 (Sigma-Aldrich, Steinheim, Germany) was calculated and corrected for spontaneous release (sensitized cells without allergen).

Bet v 1a [7] = target: T2, Bet v 1a; settings: Fluorescence, read-out: Dissociation constant Kd; cited from earlier work
[8] = one value per residue with Δδnorm > 0.08 ppm (residue named left of the cell), Int. Ex. = intermediate exchange
[9] = Dissociation constant Kd (averaged Kd app), NMR, average of all analysable residues with CSPs > 0.08 ppm, ± standard deviation

| Molecule | binding to Bet v 1d (in words) (Bet v 1d) | Dissociation constant Kd (averaged Kd app) (Bet v 1d) | binding to Bet v 1a (in words) (Bet v 1a [1]; 1H-15N HSQC titration) | Kd per residue (Bet v 1a [1]; [8]) | Kd (Bet v 1a [1]; [9]) | Kd (Bet v 1a [1]; Kd per residue, one value per residue with Δδnorm > 0.08 ppm (residue named left of the cell), Int. Ex. = intermediate exchange) | Absorption maxima, Flavonoid [2] | Kd (Bet v 1m [3]; [9]) | Kd per residue (Bet v 1m [3]; [8]) | influence of ligand on IgE binding of Bet v 1 isoforms [4] | binding to Bet v 1m (in words) (Bet v 1m [5]) | influence of ligand on mediator release induced by Bet v 1 isoforms ([6]; 5-fold molar excess of ligand, isoforms a, d, m) | Kd (Bet v 1a [1]; NMR, average of all analysable residues with CSPs > 0.08 ppm, ± standard deviation, read-out: Dissociation constant Kd (averaged Kd app)) | Kd (Bet v 1a [7]) | Dissociation constant Kd (averaged Kd app) (Bet v 1m [3]; NMR, average of all analysable residues with CSPs > 0.08 ppm, ± standard deviation) | shift to higher concentration for half-maximum release of β-hexosaminidase in comparison to the other isoforms ([6]; absence of ligands) | IgE-binding capacity ([4]; absence of ligands, pool serum of birch pollen-allergic subjects) |
| --- | --- | --- | --- | --- | --- | --- | --- | --- | --- | --- | --- | --- | --- | --- | --- | --- | --- |
| O=c1c(O[C@@H]2O[C@H](CO)[C@@H](O)[C@H](O)[C@H]2O)c(-c2ccc(O)c(O)c2)oc2cc(O)cc(O)c12 [Q3OGlc, quercetin-3-O-glucoside] | Weak affinity; also recorded: did not produce significant CSPs | No binding | weak | Int. Ex. | 288 µM | 357 µM and 259 µM and 285 µM and 252 µM | 364 nm | < 5 µM | Int. Ex. | did not modify IgE-binding | High affinity; also recorded: strongly binds | – | – | – | – | – | – |
| O=c1c(O[C@@H]2O[C@H](CO)[C@@H](O)[C@H](O)[C@H]2O[C@@H]2O[C@H](CO)[C@@H](O)[C@H](O)[C@H]2O)c(-c2ccc(O)c(O)c2)oc2cc(O)cc(O)c12 [Q3OS, quercetin-3-O-sophoroside] | did not produce significant CSPs | No binding | – | Int./Slow Ex. | – | – | 358 nm | – | – | does not significantly influence | did not lead to significant CSPs | does not significantly influence | < 1 µM | 0.57 µM | No binding | – | – |
| Bet v 1d: recombinant hypoallergenic isoform of the major birch pollen allergen Bet v 1 (UniProt P43177) (protein, UniProt P43177 2-160, looked up) Major pollen allergen Bet v …: GVFNYEIETTSVIPAARLFKAFILDGDNLVPKVAPQAISSVENIEGNGGPGTIKKINFPEGFPFKYVKDRVDEVDHTNFKYNYSVIEGGPVGDTLEKISNEIKIVATPDGGCVLKISNKYHTKGNHEVKAEQVKASKEMGETLLRAVESYLLAHSDAYN | – | – | – | – | – | – | – | – | – | – | – | – | – | – | – | approximately 10 fold | only marginal |

— publication PMC4456386, “Ligand Recognition of the Major Birch Pollen Allergen Bet v 1 is Isoform Dependent” (PLoS ONE, 2015)
